Results as given in patent US20240123012A1 (priority 2021, published 2024).

Target: human recombinant DHODH (rhDHODH) (Homo sapiens, UniProt Q02127)
Assay: Inhibition of the activity of rh DHODH on its colorimetric substrate (OD at 600 nm)
Format: biochemical
Procedure: This mother tincture constitutes the sample to be tested. The measurement of the inhibition of the action of DHODH on its substrate is carried out in a conventional multi-well plate with a transparent wall. The wells contain the samples to be tested, the DHODH and its substrate.
To evaluate the inhibition of the DHODH by the sample, the parameter of the optical density called “OD” is used. Indeed, in each well, the “OD” is measured at a wavelength of 600 nm, at several time intervals, for a duration of 5 min.
More specifically, each well comprises the diluted or non-diluted sample, the enzyme of the DHODH and its colorimetric substrate diluted in a test buffer. Said colorimetric substrate comprises DHO which can be converted into ORO by action of the DHODH.
Over time, the consumption of the colorimetric substrate DHO by the enzyme DHODH results in a reduction in the OD. This decrease indicates the conversion of the colored DHO into uncolored ORO by the activity of the DHODH. In other words, the DHO is consumed, […] to ORO by the activity of the DHODH, which causes a modification of the OD measured.
In the event of inhibition of the activity of the DHODH by the sample, the OD remains stable over time. Indeed, in the case of inhibition, the colorimetric DHO substrate will not be transformed by the DHODH into ORO, the OD therefore will remain that of the initial DHO.
To carry out the experiments, the following were used: • a solution of class 1 enzyme called “rhDHODH” for “human recombinant DHODH”, • a test buffer consisting of 50 mM Tris, 150 mM KCl and 0.1% Triton® X-100, at pH 8, • a substrate mixture of DHODH containing: 2 mM of L-dihydroorotic called “DHO”, 0.2 mM of decylubiquinone called “Q” and 0.12 mM of 2,6-Dichloroindophenol sodium salt hydrate called “DP IP” in the test buffer, • a mother tincture sample of a leaf extract of a Neurolaena lobata plant, diluted or not, in a dilution buffer consisting of dimethyl sulfoxide called “DMSO”.
To start the protocol, each dilution of the sample H1 or H2 was placed in the presence of the rh DHODH enzyme and the mixture of substrate within a well. In order to obtain an average of OD measured for a sample concentration H1 or H2, triplicates were carried out for each of the dilution concentrations of H1 and H2.
The amount of enzyme added in each well is the same. In the protocol, the enzyme is added to the well so as to have a concentration of 0.06 μg of rh DHODH enzyme/mL of total solution in the well.
% of activity=(ΔH1×100)/Δ of the negative control.
The % of inhibition is calculated by the following formula: 100—the value of the % of activity.

human recombinant DHODH (rhDHODH), sequence (Q02127 whole entry): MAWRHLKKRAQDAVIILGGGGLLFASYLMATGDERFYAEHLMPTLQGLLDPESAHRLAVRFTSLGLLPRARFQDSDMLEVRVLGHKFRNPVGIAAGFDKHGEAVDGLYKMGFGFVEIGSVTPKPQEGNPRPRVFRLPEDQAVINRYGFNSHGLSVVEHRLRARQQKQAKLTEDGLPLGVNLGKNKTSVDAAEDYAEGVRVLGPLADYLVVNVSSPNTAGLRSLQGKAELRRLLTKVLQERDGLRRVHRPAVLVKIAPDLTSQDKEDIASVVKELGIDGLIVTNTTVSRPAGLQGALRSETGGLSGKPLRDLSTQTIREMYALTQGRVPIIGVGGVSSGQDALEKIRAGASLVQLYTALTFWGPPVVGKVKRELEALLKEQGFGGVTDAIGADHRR

activity at 0.001 µg/mL: 6.25% | activity at 0.01 µg/mL: 7.21% | activity at 0.1 µg/mL: 0% | activity at 1 µg/mL: 0% | Δ (OD at 0 s minus OD at 275 s) (0.001 μg/mL): 0.013 | inhibition at 0.001 µg/mL (0.001 μg/mL, 0-275 s): 93.8% | OD at 600 nm (0.001 μg/mL, 0 s): 0.339 | OD at 600 nm (0.001 μg/mL, 55 s): 0.340 | OD at 600 nm (0.001 μg/mL, 110 s): 0.333 | OD at 600 nm (0.001 μg/mL, 165 s): 0.331 | OD at 600 nm (0.001 μg/mL, 220 s): 0.328 | OD at 600 nm (0.001 μg/mL, 275 s): 0.326 | Δ (OD at 0 s minus OD at 275 s) (0.01 μg/mL): 0.015 | inhibition at 0.01 µg/mL (0.01 μg/mL, 0-275 s): 92.8% | OD at 600 nm (0.01 μg/mL, 0 s): 0.344 | OD at 600 nm (0.01 μg/mL, 55 s): 0.345 | OD at 600 nm (0.01 μg/mL, 110 s): 0.339 | OD at 600 nm (0.01 μg/mL, 165 s): 0.336 | OD at 600 nm (0.01 μg/mL, 220 s): 0.348 | OD at 600 nm (0.01 μg/mL, 275 s): 0.329 | Δ (OD at 0 s minus OD at 275 s) (0.1 μg/mL): 0.000 | inhibition at 0.1 µg/mL (0.1 μg/mL, 0-275 s): 100% | OD at 600 nm (0.1 μg/mL, 0 s): 0.349 | OD at 600 nm (0.1 μg/mL, 55 s): 0.348 | OD at 600 nm (0.1 μg/mL, 110 s): 0.353 | OD at 600 nm (0.1 μg/mL, 165 s): 0.345 | OD at 600 nm (0.1 μg/mL, 220 s): 0.350 | OD at 600 nm (0.1 μg/mL, 275 s): 0.349 | Δ (OD at 0 s minus OD at 275 s) (1 μg/mL): 0.001 | inhibition at 1 µg/mL (1 μg/mL, 0-275 s): 100% | OD at 600 nm (1 μg/mL, 0 s): 0.354 | OD at 600 nm (1 μg/mL, 55 s): 0.354 | OD at 600 nm (1 μg/mL, 110 s): 0.352 | OD at 600 nm (1 μg/mL, 165 s): 0.361 | OD at 600 nm (1 μg/mL, 220 s): 0.357 | OD at 600 nm (1 μg/mL, 275 s): 0.353
Structure (SMILES): Cc1c(-c2ccc(-c3ccccc3F)cc2)nc2ccc(F)cc2c1C(=O)O [brequinar]
